The values that follow come from a melting point compilation (Tetko et al.).

Compound `Cc1ccc(-n2c(C)cc(C(=O)CCl)c2C)cc1` displayed a melting point of 81 to 83 °C.
In the case of `NC(=O)N1c2ccccc2CC(=O)c2ccccc21` it was 216 °C; in that of `COc1ccc2c(C(=S)N(C)CC(=O)O)cccc2c1C(F)(F)F`, 164 °C; in that of `Cc1ccc[nH]1`, -35.6 °C.
Compound `CN(c1c(F)c(F)c(-c2c(F)c(F)c(F)c(F)c2F)c(F)c1F)N(O)O` had a melting point of 140 °C.
In the case of `Oc1noc2cc(Cl)ccc12` it was 215 to 217 °C; in that of `O=C1[C@@H](Oc2ccccc2)[C@@H](c2ccccc2)N1[C@@H](Sc1ccccc1)c1ccccc1`, 194 °C.
In the case of `O=c1cc(C(F)(F)F)c2cc3c4c(c2o1)CCCN4CCC3` it was 167 to 168 °C; in that of `Cc1nc2ccccc2[nH]c(=O)c1=NNc1cc(-c2ccccc2)n[nH]1`, 160 °C; in that of `N#C/C(=N/Nc1ccc(Cl)cc1)c1nc(-c2ccc(Cl)cc2)cs1`, 240 °C.
`O=C(Cc1ccccc1)OCCc1ccccc1` had a melting point of 26.5 °C.
The result for `CC(=O)Oc1ccc([N+](=O)[O-])cc1[N+](=O)[O-]` reads 69 to 75 °C; that for `COc1cc2c(cc1OC)C(CO)NCC2` (stereo unspecified), 135 to 139 °C.
In the case of `OCc1ccncn1`, the melting point amounted to 77 °C.
The result for `NC1CONC1=O` (stereo unspecified) reads 156 °C; that for `Cc1cc(/C=C/c2ccccc2N)c([N+](=O)[O-])cc1[N+](=O)[O-]`, 175 °C.
On to `C=C1C(=O)C2(C)CCC1C2(C)C` (stereo unspecified), for which the melting point was found to be 45 °C.
The result for `Cc1cc(C(=O)O)n[nH]1` reads 241 to 242 °C; that for `Cn1ccc(-c2ccc(C(=O)O)cc2)n1`, 240 to 242 °C; that for `COc1ccc(Br)cc1[N+](=O)[O-]`, 87 to 88 °C.
In the case of `O=C1c2ccccc2C(=O)C2CC3=C(CC=CC3)CC12` (stereo unspecified), the melting point is 155 °C.
The result for `Nc1ccc(S(=O)(=O)c2ccc(NCCO)cc2)cc1` reads 131 °C.
As for `C=CCC#N`, the melting point was -87 °C.
The result for `NS(=O)(=O)c1cc(Cl)sc1Cl` reads 131 to 133 °C; that for `Cc1cccc(Cl)c1I`, 27 °C; that for `CC(=O)N1CCc2cc(Br)ccc21`, 124 to 127 °C.
In the case of `COc1ccc(F)cc1CBr` it was 60 °C; in that of `O=[N+]([O-])c1ccc(Cl)cc1Nc1ccccc1`, 110 to 114 °C; in that of `CCC(C(=O)NC(N)=O)c1ccccc1` (stereo unspecified), 162 °C.
In the case of `O=Cc1ccc(-n2cncn2)cc1` it was 147 to 149 °C; in that of `OCCOc1ccccc1OCCO`, 78 to 82 °C; in that of `Oc1cccnc1Br`, 185 to 188 °C.
`CC(O)(c1ccccc1)c1ccccc1`: the melting point came out at 80 °C.
In turn, `Cc1ccc(C(C)CC(=O)C=Cc2ccccc2)cc1` (stereo unspecified) had a melting point of 88 °C.
The compound `Cc1cnc2c(ccc3c(C)c(C)cnc32)c1C` registered a melting point of 278 °C.
Turning to `C=C(C)CCCCCCCCCCCCCC`, the melting point is 2 °C.
The compound `CC(C)c1c(C(=O)Nc2ccccc2)c(-c2ccccc2)c(-c2ccc(F)cc2)n1CCC(O)CC(O)CC(=O)O` (stereo unspecified) had a melting point of 160 °C.
The result for `CN1C(CC(=O)c2ccccc2)CCCC1CC(O)c1ccccc1` (stereo unspecified) reads 130 °C.
In the case of `c1ccc2c(c1)-c1nc3ccccc3nc1-2` it was 203 °C; in that of `Cc1nc(-c2cccc(C=O)c2)cs1`, 76 to 80 °C.
`COc1ccc(CNC2=CC(=O)c3ccccc3C2=O)cc1` had a melting point of 164 °C.
The result for `Brc1c(Br)c(Br)c2c(c1Br)Oc1c(Br)c(Br)c(Br)c(Br)c1O2` reads 376 °C; that for `COC(=O)c1ccc(CS(=O)(=O)Cl)cc1`, 116 to 117 °C; that for `C=CCC(CC)(CC)C(N)=O`, 75 °C.
As for `COc1ccc(C2(C)C=C(C)N=N2)cc1` (stereo unspecified), the melting point worked out at 70 °C.
`O=C1CCCCC1C1CCCCC1` (stereo unspecified) displayed a melting point of -32 °C.
On to `CCCCCCCCCCC(O)CC` (stereo unspecified), for which the melting point came out at 32 °C.
On to `CCc1cccc2c3c([nH]c12)C(CC)(CC(=O)O)OCC3` (stereo unspecified), for which the melting point was 146 °C.
For `CC1=C(Cl)CCP(=O)(c2ccccc2)C1` (stereo unspecified), the melting point was 143 °C.
`Nc1cc(F)ccc1Br` returned a melting point of 44 °C.
The result for `C=Cc1ccc2c(c1)OCCOCCOCCOCCO2` reads 35 to 43 °C; that for `Cc1cccc2c1CC(C(=O)O)NC2` (racemic), 316 to 318 °C; that for `CNC=O`, -3.2 °C.
In the case of `Cc1nn(-c2ccccc2)c2oc3sccc3c(=S)c12` it was 194 to 196 °C; in that of `CCC(C)(C)c1cc(O)c(C(C)(C)CC)cc1O`, 180 °C; in that of `Clc1ccc(-n2cccc2)cc1`, 88 to 91 °C.
Regarding `O=C(O)CCCn1c(C(F)(F)F)nc2ccccc21`, the melting point lay in the range of 143 to 145 °C.
For the compound `O=C1OC(c2ccccc2)=NC1=Cc1ccc(Cl)cc1Cl`, the melting point was found to be 180 °C.
For `COc1c(C(=O)O)csc1Br`, the melting point was 155 to 156 °C.
With `COc1cc([C@@H](O)[C@H](CO)Oc2c(OC)cccc2OC)cc(OC)c1O`, the melting point was determined as 217 °C.
In the case of `Cc1cc(C(=O)O)cc(C)c1F` it was 166 °C; in that of `COC(=O)c1ccccc1S(N)(=O)=O`, 125 to 127 °C.
With `COC(=O)c1cc(O)c(O)c(O)c1`, the melting point came out at 262 °C.
The compound `O=C(N[C@@H](CSC(c1ccccc1)(c1ccccc1)c1ccccc1)C(=O)O)OCC1c2ccccc2-c2ccccc21` registered a melting point of 172 to 177 °C.
The result for `Cc1ccc(-c2nc(C(=O)O)cs2)cc1` reads 170 °C; that for `O=C1CC(=O)CC(c2ccccc2)C1`, 188 °C.
In turn, `COc1cc(N=C=O)cc(OC)c1` came in with a melting point of 34 to 35.5 °C.
In the case of `O=C(OOC(=O)c1ccc(Cl)cc1Cl)c1ccc(Cl)cc1Cl` it was 106 °C; in that of `Cc1cc(C)c([N+](=O)[O-])cc1C`, 71 °C.
In the case of `CC=CC(C)C` it was -120 °C; in that of `O=C(Cl)c1cc(Cl)nc2ccc(Br)cc12`, 140 to 142 °C.
`CC(C)OC(=O)C1=C(C(=O)O)C2c3ccccc3C1c1ccccc12` had a melting point of 176 °C.
The result for `O=C(Nc1ccccc1)c1cccnc1` reads 120 °C; that for `O=C(Nc1ccccc1)c1cc2ccccc2cc1O`, 248 °C; that for `c1ccc(-c2ccc3cc4ccc(-c5ccccc5)nc4cc3n2)cc1`, 279 °C.
In the case of `COc1ccc2c(c1)CC1(CCC(=O)C(C(=O)O)C1)C2=O` (stereo unspecified) it was 120 °C; in that of `CC12CCC3C(CC=C4CC(O)CCC43C)C1CCC2=O` (single isomer, unassigned; (+)), 146 to 151 °C; in that of `O=C(O)CN(CC(=O)O)c1ccccc1`, 156 to 160 °C.
The result for `Cn1nc(-c2ccccc2)cc1CCl` reads 70 to 72 °C; that for `N#Cc1ccc(N)c(F)c1`, 89 °C.
Compound `O=C(O)/C=C/c1cccc2c(Br)ccc([N+](=O)[O-])c12` had a melting point of 141 to 142 °C.
In turn, `COc1ccc(NC(=O)C=CC(=O)O)cc1` returned a melting point of 190 to 193 °C.
`O=C(Cl)c1ccc(-c2ccco2)s1`: the melting point was 83 °C.
In the case of `O=C1NC(=O)c2cccc3cccc1c23` it was 301 to 302 °C; in that of `CC(N)C(C)(C)C` (stereo unspecified), -20 °C; in that of `CC(C)(C)c1ccc(C(N)=O)cc1`, 173 °C.
As for `COC(=O)c1ccc(NC(C)=O)c(NC(C)=O)c1`, the melting point came to 225 °C.
For `OC1(c2ccc(Cl)cc2)CCNCC1`, the melting point was in the range of 139 to 141 °C.
In the case of `COc1ccc(OCC(N)=S)cc1` it was 113 to 114 °C; in that of `Cc1ccc(C(=O)O)c(C)c1`, 125 °C; in that of `COc1cc(/C=C\C(=O)NCCc2ccc(OCc3ccccc3)c(OC)c2)ccc1OCc1ccccc1`, 163 °C.
In the case of `CC(=O)OC1C2=C(C(=O)C(OC(C)=O)C3(CC3C)C2=O)C2(C)CCC(C)=C(C)C2C1O` (stereo unspecified) it was 176 to 178 °C; in that of `NCP(=O)(O)O`, 300 °C.
The result for `O=C1c2ccccc2S(=O)(=O)N1Cl` reads 148 to 151 °C; that for `c1ccc(N=Nc2ccc(Nc3ccccc3)cc2)cc1`, 90 °C.
In turn, `C#CC=CC=C` registered a melting point of -81 °C.
Consider `Cc1nc(-c2ccccc2)sc1C=O`, for which the melting point lay within 111 to 113 °C.
The result for `C=CC[C@H](N)C(=O)O` reads 253 to 255 °C; that for `COc1c(OC)c(OC(C)=O)c2c(OC)cccc2c1OC(C)=O`, 69.5 °C; that for `O=c1oc2ccccc2c(O)c1C1CCCc2ccccc21` (stereo unspecified), 174 °C.
The compound `Cc1c(C)c(Br)c(Br)c(Br)c1Br` came in with a melting point of 262 °C.
In turn, `O=C(O)c1cc2nccnc2s1` showed a melting point of 220 °C.
The compound `Cc1ccc(C(=O)CC#N)cc1` registered a melting point of 102 °C.
In the case of `COC(=O)C1=C(C)NC(C)=C([N+](=O)[O-])C1c1ccccc1C(F)(F)F` (stereo unspecified), the melting point lay in the range of 166 to 172 °C.
In turn, `O=C1c2ccccc2N(C(=O)CN2CCOCC2)CN1c1ccccc1` registered a melting point of 136 °C.
The result for `CC1(C)Cc2cccc(C=O)c2O1` reads 81 to 83 °C.
As for `Cc1ccc(C)c2c1C(=O)c1ccccc1C2=O`, the melting point was 140 °C.
For `CC12CCC(/C(=C/N(O)c3ccccc3)C1=O)C2(C)C` (stereo unspecified), the melting point lay in the range of 106 to 107 °C.
The result for `CC12CCC(C1(C)C)C(CCC(Br)c1ccccc1)(C1(CCC(Br)c3ccccc3)C(=O)C3(C)CCC1C3(C)C)C2=O` (stereo unspecified) reads 168 °C; that for `Brc1n[nH]c(Br)n1`, 201 °C.
`CN1CCOc2cc(C=O)ccc21` showed a melting point of 70 to 71 °C.
